Reference: the NIST ThermoML archive (doi:10.1016/j.jct.2005.07.009)

Assays:
[1] = excess molar enthalpy (molar enthalpy of mixing); xn = mol fraction of the nth substance listed; details: 298.15 K, 101 kPa, Liquid
[2] = xn = mol fraction of the nth substance listed; details: 298.15 K, 101 kPa, Liquid, Vibrating tube method

BrCCCCCCBr [1,6-dibromohexane] + CCCCC(=O)OCC
Details | excess molar enthalpy [kJ/mol] | mass density [kg/m3]
[1], x2 = 0.0622 | 0.0304 | –
[1], x2 = 0.1322 | 0.0461 | –
[1], x2 = 0.2027 | 0.0576 | –
[1], x2 = 0.2702 | 0.0628 | –
[1], x2 = 0.3359 | 0.0609 | –
[1], x2 = 0.3944 | 0.052 | –
[1], x2 = 0.4464 | 0.0391 | –
[1], x2 = 0.4901 | 0.0237 | –
[1], x2 = 0.5274 | 0.0076 | –
[1], x2 = 0.5624 | -0.0089 | –
[1], x2 = 0.6245 | -0.0257 | –
[1], x2 = 0.6853 | -0.0321 | –
[1], x2 = 0.7481 | -0.0328 | –
[1], x2 = 0.8143 | -0.0299 | –
[1], x2 = 0.8791 | -0.0229 | –
[1], x2 = 0.947 | -0.0137 | –
[2], x2 = 0.0648 | – | 1555.13
[2], x2 = 0.1774 | – | 1474.02
[2], x2 = 0.2329 | – | 1433.91
[2], x2 = 0.2964 | – | 1387.86
[2], x2 = 0.4137 | – | 1302.47
[2], x2 = 0.5312 | – | 1216.59
[2], x2 = 0.5868 | – | 1175.74
[2], x2 = 0.6906 | – | 1099.24
[2], x2 = 0.7612 | – | 1047.08
[2], x2 = 0.819 | – | 1004.24
[2], x2 = 0.8814 | – | 957.89
[2], x2 = 0.934 | – | 918.67

BrCCCCCCBr [1,6-dibromohexane] + CCOC(=O)CC
Details | excess molar enthalpy [kJ/mol] | mass density [kg/m3]
[1], x2 = 0.0655 | 0.0441 | –
[1], x2 = 0.1421 | 0.0769 | –
[1], x2 = 0.2176 | 0.0982 | –
[1], x2 = 0.2889 | 0.11 | –
[1], x2 = 0.3565 | 0.112 | –
[1], x2 = 0.4183 | 0.107 | –
[1], x2 = 0.4746 | 0.0944 | –
[1], x2 = 0.5242 | 0.0786 | –
[1], x2 = 0.5687 | 0.062 | –
[1], x2 = 0.5968 | 0.0523 | –
[1], x2 = 0.6497 | 0.0374 | –
[1], x2 = 0.7061 | 0.0253 | –
[1], x2 = 0.7663 | 0.018 | –
[1], x2 = 0.8256 | 0.0129 | –
[1], x2 = 0.8846 | 0.0079 | –
[1], x2 = 0.9439 | 0.0029 | –
[2], x2 = 0.0785 | – | 1558.6
[2], x2 = 0.1542 | – | 1515.02
[2], x2 = 0.223 | – | 1474.07
[2], x2 = 0.2897 | – | 1432.85
[2], x2 = 0.3566 | – | 1390.07
[2], x2 = 0.4169 | – | 1350.15
[2], x2 = 0.5364 | – | 1266.98
[2], x2 = 0.595 | – | 1224.16
[2], x2 = 0.6523 | – | 1181.7
[2], x2 = 0.7055 | – | 1139.41
[2], x2 = 0.7573 | – | 1097.77
[2], x2 = 0.8052 | – | 1058.09
[2], x2 = 0.8583 | – | 1012.69
[2], x2 = 0.9041 | – | 972.41

BrCCCCCCBr [1,6-dibromohexane] + CCOC(C)=O
Details | excess molar enthalpy [kJ/mol] | mass density [kg/m3]
[1], x2 = 0.0852 | 0.135 | –
[1], x2 = 0.179 | 0.216 | –
[1], x2 = 0.2657 | 0.269 | –
[1], x2 = 0.3506 | 0.309 | –
[1], x2 = 0.4238 | 0.331 | –
[1], x2 = 0.489 | 0.337 | –
[1], x2 = 0.5186 | 0.334 | –
[1], x2 = 0.5344 | 0.332 | –
[1], x2 = 0.5598 | 0.327 | –
[1], x2 = 0.6031 | 0.307 | –
[1], x2 = 0.6495 | 0.283 | –
[1], x2 = 0.7011 | 0.254 | –
[1], x2 = 0.7507 | 0.218 | –
[1], x2 = 0.8025 | 0.18 | –
[1], x2 = 0.8542 | 0.138 | –
[1], x2 = 0.9062 | 0.0925 | –
[1], x2 = 0.9578 | 0.0443 | –
[2], x2 = 0.1101 | – | 1558.02
[2], x2 = 0.2056 | – | 1515.22
[2], x2 = 0.2841 | – | 1476.78
[2], x2 = 0.3679 | – | 1432.01
[2], x2 = 0.4348 | – | 1393.28
[2], x2 = 0.5035 | – | 1350.27
[2], x2 = 0.623 | – | 1266.72
[2], x2 = 0.733 | – | 1177.88
[2], x2 = 0.8165 | – | 1101.03
[2], x2 = 0.8582 | – | 1059.17
[2], x2 = 0.8988 | – | 1015.65
[2], x2 = 0.9703 | – | 932.2

BrCCCCCCBr [1,6-dibromohexane] + CCOC=O
Details | excess molar enthalpy [kJ/mol] | mass density [kg/m3]
[1], x2 = 0.1027 | 0.0187 | –
[1], x2 = 0.2124 | 0.532 | –
[1], x2 = 0.3116 | 0.674 | –
[1], x2 = 0.4024 | 0.756 | –
[1], x2 = 0.4766 | 0.794 | –
[1], x2 = 0.547 | 0.794 | –
[1], x2 = 0.6032 | 0.767 | –
[1], x2 = 0.6673 | 0.707 | –
[1], x2 = 0.7137 | 0.642 | –
[1], x2 = 0.7608 | 0.57 | –
[1], x2 = 0.8062 | 0.47 | –
[1], x2 = 0.852 | 0.374 | –
[1], x2 = 0.8953 | 0.269 | –
[1], x2 = 0.9357 | 0.165 | –
[1], x2 = 0.9691 | 0.0809 | –
[2], x2 = 0.1144 | – | 1557.48
[2], x2 = 0.2023 | – | 1519.96
[2], x2 = 0.2923 | – | 1477.74
[2], x2 = 0.3593 | – | 1443.52
[2], x2 = 0.5084 | – | 1357.33
[2], x2 = 0.571 | – | 1316.38
[2], x2 = 0.6288 | – | 1275.6
[2], x2 = 0.6788 | – | 1237.72
[2], x2 = 0.7728 | – | 1159.02
[2], x2 = 0.8233 | – | 1112.18
[2], x2 = 0.8545 | – | 1081.46
[2], x2 = 0.9003 | – | 1033.41

CCCCC(=O)OCC [ethyl pentanoate] + BrCCBr
Details | excess molar enthalpy [kJ/mol] | mass density [kg/m3]
[1], x1 = 0.0286 | 0.0199 | –
[1], x1 = 0.0632 | 0.0314 | –
[1], x1 = 0.103 | 0.0404 | –
[1], x1 = 0.1465 | 0.0433 | –
[1], x1 = 0.1918 | 0.0425 | –
[1], x1 = 0.2375 | 0.0355 | –
[1], x1 = 0.2837 | 0.0175 | –
[1], x1 = 0.3283 | -0.0041 | –
[1], x1 = 0.3711 | -0.0203 | –
[1], x1 = 0.4026 | -0.0345 | –
[1], x1 = 0.4465 | -0.0468 | –
[1], x1 = 0.4938 | -0.0595 | –
[1], x1 = 0.5538 | -0.0689 | –
[1], x1 = 0.6297 | -0.0744 | –
[1], x1 = 0.7132 | -0.0733 | –
[1], x1 = 0.8085 | -0.0599 | –
[1], x1 = 0.9099 | -0.0353 | –
[2], x1 = 0.0379 | – | 2085.1
[2], x1 = 0.0766 | – | 2004.73
[2], x1 = 0.1567 | – | 1851.43
[2], x1 = 0.1993 | – | 1776.2
[2], x1 = 0.2427 | – | 1703.76
[2], x1 = 0.2945 | – | 1622.25
[2], x1 = 0.3695 | – | 1512.8
[2], x1 = 0.5222 | – | 1317.39
[2], x1 = 0.6601 | – | 1166.3
[2], x1 = 0.7313 | – | 1096.12
[2], x1 = 0.8119 | – | 1022.28
[2], x1 = 0.9074 | – | 941.5
